Test results from patent US12263200B2, “Specific nutritional or therapeutic agent including a mixture of grape and blueberry” (priority 2015, dated 2025).

System: SK-N-SH cells
Assay: Test 3: protection of neuronal cells against hydrogen peroxide (LDH cell death test, Resazurin cell survival test)
Format: cell-based, human
Details: for protection of cells against hydrogen peroxide, cumulative treatment, polyphenols taken individually (cell survival, Resazurin test): 1 μM, 1 nM and 1 pM for 3 consecutive days, then hydrogen peroxide 250 μM, analyzed 24 hours later; for protection of cells against hydrogen peroxide, acute treatment (cell death LDH release, survival Resazurin test): toxic hydrogen peroxide (250 μM), co-treated 24 hours at 1 μM, 1 nM and 1 pM
Description: For this, SK-N-SH cells, a cell line of human neuroblasts, were kept in a MEM supplemented with 10% (v/v) FBS, 100 U/ml of penicillin, 100 μg/ml of streptomycin and 1% sodium pyruvate (1 mM) in a humidified incubator at 37° C. with 5% CO2. The cells were grown to 80% confluence then seeded in multi-well cell culture plates to create different experimental models. The neuroprotective effect of the different compounds was analyzed by two different and complementary tests: the cell death quantification test and the cell survival test.
The cell death test is a colorimetric test based on measuring the activity of the lactate dehydrogenase (LDH) released by the cytosol from damaged cells in the supernatant.
The cell survival test was performed by conducting a Resazurin Test. Resazurin is an oxidation-reduction indicator of the permeable cell that can be used to monitor the number of viable cells by using tetrazolium compounds. The viable cells with an active metabolism can reduce resazurin into a resorufin product that is pink and fluorescent.
SK-N-SH neuronal cells were subjected to a toxic concentration of hydrogen peroxide (250 μM) and co-treated with epicatechin, catechin or ferulic acid at 1 μM, 1 nM and 1 pM for 24 hours. On completing the treatment, the cells were washed twice and cell death (release of LDH) and survival (Resazurin test) were analyzed.
In order to study the synergistic effect of epicatchin, catechin and ferulic acid, the SK-N-SH neuronal cells were subjected for 24 hours to a toxic concentration of hydrogen peroxide and co-treated with a mix comprising epicatechin, catechin and ferulic acid, said mix being tested at the different concentrations of 1 μM, 1 nM or 1 pM. On completing the treatment, the cells were washed twice and the cell death (release of LDH) and survival (Resazurin test) were analyzed.
The neuroprotective effects of the three polyphenols, i.e. epicatechin, catechin and ferulic acid, with a cumulative treatment, were then studied. The SK-N-SH cells were grown to 80% confluence then seeded in multi-well cell culture plates. […] On the third day, the cells were subjected to a toxic concentration of hydrogen peroxide (250 μM) and the protection was analyzed 24 hours later. On completing the treatment, the cells were washed twice and cell survival (Resazurin test) was analyzed.
In order to study the synergistic effect of epicatechin, catechin and ferulic acid, the SK-N-SH cells were grown to 80% confluence then seeded in multi-well cell culture plates. […] On the third day, the cells were subjected to a toxic concentration of hydrogen peroxide (125 μM and 250 μM) and the protection was analyzed 24 hours later. On completing the treatment, the cells were washed twice and cell survival (Resazurin test) was analyzed. […]

## catechin
  protection of cells against hydrogen peroxide, cumulative treatment, polyphenols taken individually (cell survival, Resazurin test): do not protect the cells against hydrogen peroxide
  protection of cells against hydrogen peroxide, acute treatment (cell death LDH release, survival Resazurin test): do not protect the cells against hydrogen peroxide

## COc1cc(/C=C/C(=O)O)ccc1O [ferulic acid]
  protection of cells against hydrogen peroxide, cumulative treatment, polyphenols taken individually (cell survival, Resazurin test): do not protect the cells against hydrogen peroxide
  protection of cells against hydrogen peroxide, acute treatment (cell death LDH release, survival Resazurin test): do not protect the cells against hydrogen peroxide
